{"source": "PubChem BioAssay AID298", "about": "(DTP/NCI, 2004)", "system": "MX-1 breast xenograft, intrarenal, nude mice, tumor weight", "test": "NCI In Vivo Anticancer Drug Screen. Data for tumor model Human Mammary Carcinoma MX-1 Xenograft (intrarenal inoculation) in NU/NU BALB/C (nude) mice", "details": "endpoint: mean tumor weight change, higher = larger tumour", "method_in_brief": "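Antitumor activity is expressed as a T/C ratio. The treated group's tumor size or survival is compared against the vehicle-treated control group in mice bearing transplanted tumors.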", "note": "Results filed as inconclusive are left out."}
{"compound": "CN(C)[C@@H]1C(=O)C(C(N)=O)=C(O)[C@@]2(O)C(=O)C3=C(O)c4c(O)ccc(Cl)c4[C@@](C)(O)[C@H]3C[C@@H]12", "values": [{"measurement": "T/C", "setting": "dose: 300.0 mg/kg/injection, schedule: Q04DX003 (sc), vehicle: saline", "result": "155 % of control"}, {"measurement": "T/C", "setting": "dose: 1200.0 mg/kg/injection, schedule: Q04DX003 (sc), vehicle: saline", "result": "113 % of control"}, {"measurement": "T/C", "setting": "dose: 2400.0 mg/kg/injection, schedule: Q04DX003 (sc), vehicle: saline", "result": "70 % of control"}]}
{"compound": "OC(CBr)C(O)C(O)C(O)CBr", "note": "(stereo not drawn)", "values": [{"measurement": "T/C", "setting": "dose: 15.0 mg/kg/injection, schedule: Q01DX010 (ip), vehicle: Klucel (hydroxypropylcellulose) (HPC)", "result": "29 % of control"}, {"measurement": "T/C", "setting": "dose: 30.0 mg/kg/injection, schedule: Q01DX010 (ip), vehicle: Klucel (hydroxypropylcellulose) (HPC)", "result": "13 % of control"}, {"measurement": "T/C", "setting": "dose: 50.0 mg/kg/injection, schedule: Q04DX003 (ip), vehicle: Klucel (hydroxypropylcellulose) (HPC)", "result": "93 % of control"}, {"measurement": "T/C", "setting": "dose: 50.0 mg/kg/injection, schedule: Q04DX003 (sc), vehicle: Klucel (hydroxypropylcellulose) (HPC)", "result": "35 % of control"}, {"measurement": "T/C", "setting": "dose: 60.0 mg/kg/injection, schedule: Q01DX010 (ip), vehicle: Klucel (hydroxypropylcellulose) (HPC)", "result": "-22 % of control"}, {"measurement": "T/C", "setting": "dose: 100.0 mg/kg/injection, schedule: Q04DX003 (ip), vehicle: Klucel (hydroxypropylcellulose) (HPC)", "result": "61 % of control"}, {"measurement": "T/C", "setting": "dose: 100.0 mg/kg/injection, schedule: Q04DX003 (sc), vehicle: Klucel (hydroxypropylcellulose) (HPC)", "result": "33 % of control"}, {"measurement": "T/C", "setting": "dose: 200.0 mg/kg/injection, schedule: Q04DX003 (ip), vehicle: Klucel (hydroxypropylcellulose) (HPC)", "result": "-44 % of control"}]}
{"compound": "CC(/C=C/C=C/C=C/C=C/C=C/C(O)=C1/C(=O)C(CCC(=O)O)N(C)C1=O)=C\\C(C)C(OC1CC(O)C(O)C(C)O1)C(C)C", "note": "(stereo not drawn)", "values": [{"measurement": "T/C", "setting": "dose: 8.0 mg/kg/injection, schedule: Q04DX003 (ip), vehicle: water", "result": "62 % of control"}, {"measurement": "T/C", "setting": "dose: 15.88 mg/kg/injection, schedule: Q04DX003 (ip), vehicle: water", "result": "115 % of control"}, {"measurement": "T/C", "setting": "dose: 16.0 mg/kg/injection, schedule: Q04DX003 (ip), vehicle: water", "result": "57 % of control"}, {"measurement": "T/C", "setting": "dose: 31.75 mg/kg/injection, schedule: Q04DX003 (ip), vehicle: water", "result": "97 % of control"}, {"measurement": "T/C", "setting": "dose: 32.0 mg/kg/injection, schedule: Q04DX003 (ip), vehicle: water", "result": "95 % of control"}, {"measurement": "T/C", "setting": "dose: 62.5 mg/kg/injection, schedule: Q04DX003 (ip), vehicle: water", "result": "63 % of control"}, {"measurement": "T/C", "setting": "dose: 64.0 mg/kg/injection, schedule: Q04DX003 (ip), vehicle: water", "result": "58 % of control"}, {"measurement": "T/C", "setting": "dose: 125.0 mg/kg/injection, schedule: Q04DX003 (ip), vehicle: water", "result": "50 % of control"}]}
{"compound": "CCC12C[N+]3([O-])CCc4c([nH]c5ccccc45)C(C(=O)OC)(c4cc5c(cc4OC)N(C)C4C(O)(C(=O)OC)C(OC(C)=O)C6(CC)C=CCN7CCC54C76)CC(C3)C1O2", "note": "(stereo not drawn)", "values": [{"measurement": "T/C", "setting": "dose: 80.0 mg/kg/injection, schedule: Q04DX003 (sc), vehicle: water", "result": "109 % of control"}, {"measurement": "T/C", "setting": "dose: 160.0 mg/kg/injection, schedule: Q04DX003 (sc), vehicle: water", "result": "117 % of control"}, {"measurement": "T/C", "setting": "dose: 320.0 mg/kg/injection, schedule: Q04DX003 (sc), vehicle: water", "result": "123 % of control"}, {"measurement": "T/C", "setting": "dose: 640.0 mg/kg/injection, schedule: Q04DX003 (sc), vehicle: water", "result": "88 % of control"}]}
{"compound": "COc1cccc2c1C(=O)c1c(O)c3c(c(O)c1C2=O)C[C@@](O)(/C(C)=N\\O)C[C@@H]3OC1CC(N)C(O)C(C)O1", "note": "(stereo partly drawn)", "values": [{"measurement": "T/C", "setting": "dose: 12.5 mg/kg/injection, schedule: Q04DX003 (sc), vehicle: saline", "result": "64 % of control"}, {"measurement": "T/C", "setting": "dose: 25.0 mg/kg/injection, schedule: Q04DX003 (sc), vehicle: saline", "result": "58 % of control"}, {"measurement": "T/C", "setting": "dose: 50.0 mg/kg/injection, schedule: Q04DX003 (sc), vehicle: saline", "result": "23 % of control"}]}
{"compound": "C=CC(C)NC(=S)NNC(=S)NC", "note": "(stereo not drawn)", "values": [{"measurement": "T/C", "setting": "dose: 300.0 mg/kg/injection, schedule: Q04DX003 (sc), vehicle: saline + alcohol", "result": "85 % of control"}, {"measurement": "T/C", "setting": "dose: 600.0 mg/kg/injection, schedule: Q04DX003 (sc), vehicle: saline + alcohol", "result": "58 % of control"}, {"measurement": "T/C", "setting": "dose: 1200.0 mg/kg/injection, schedule: Q04DX003 (sc), vehicle: saline + alcohol", "result": "99 % of control"}]}
{"compound": "CC1=C(/C=C/C(C)=C/C=C/C(C)=C/C(=O)Nc2ccc(O)cc2)C(C)(C)CCC1", "values": [{"measurement": "T/C", "setting": "dose: 100.0 mg/kg/injection, schedule: Q04DX003 (ip), vehicle: saline with Tween-80", "result": "67 % of control"}, {"measurement": "T/C", "setting": "dose: 200.0 mg/kg/injection, schedule: Q04DX003 (ip), vehicle: saline with Tween-80", "result": "81 % of control"}, {"measurement": "T/C", "setting": "dose: 400.0 mg/kg/injection, schedule: Q04DX003 (ip), vehicle: saline with Tween-80", "result": "58 % of control"}, {"measurement": "T/C", "setting": "dose: 800.0 mg/kg/injection, schedule: Q04DX003 (ip), vehicle: saline with Tween-80", "result": "69 % of control"}]}
